{
  "source": "patent US20220304992A1",
  "about": "“METHODS OF REJUVENATING AGED TISSUE BY INHIBITING 15-HYDROXYPROSTAGLANDIN DEHYDROGENASE (15-PGDH)” (The Board of Trustees of the Leland Stanford Junior …, priority 2019, published 2022)",
  "key": {"myotubes": {"system": "myotubes", "test": "Differentiated (starved) cultured myotubes: Atrogin1 expression and diameter", "assay_type": "cell-based, mouse", "settings": "starved (24 hr) or non-starved myotubes; PGE2 10 ng/ml, SW 1 μM; listed as SW", "procedure": "For myotubes we performed fixation using 4% PFA, blocking and permeabilization using PBS/1% BSA/0.1% Triton X-100 and staining with primary antibodies anti-MyHC (Thermo Fisher Scientific, catalog #14-6503-82, clone MF-20, 1:500) and then with AlexaFluor secondary Antibodies (Jackson ImmunoResearch Laboratories, 1:500). We counterstained nuclei with DAPI (Invitrogen).\nPrimary myoblasts were grown in myogenic cell culture medium containing DMEM/F10 (50:50), 15% FBS, 2.5 ng ml-1 fibroblast growth factor-2 and 1% penicillin-streptomycin. For differentiation experiments, confluent myoblasts were grown in medium containing 5% horse serum, DMEM. […] Myoblasts were isolated from EP4^fl/fl mice and received either a mCherry/Cre lentivirus or a mock infection as previously described (5).\nFor cultured myotubes we performed fixation using 4% PFA, blocking and permeabilization using PBS/1% BSA/0.1% Triton X-100 and staining with primary antibodies anti-MYH (Thermo Fisher Scientific, catalog #14-6503-82, clone MF-20, 1:500) and then with AlexaFluor secondary Antibodies (Jackson ImmunoResearch Laboratories, 1:500). We counterstained nuclei with DAPI (Invitrogen). We acquired images using the KEYENCE BZ-X700 all-in-one fluorescence microscope (Keyence) with 20x/0.75 N.A. objectives. We analyzed the fiber area using the Keyence Advanced Analysis Software. For fiber area the entire maximum cross-sectional area of the muscle was quantified or at least 10 fields of LAMININ or WGA stained myofiber cross-sections encompassing over 400 myofibers were captured for each mouse as above. For fiber typing analysis, the MATLAB application SMASH-Semi-Automatic Muscle Analysis Using Segmentation of Histology, was used as previously described (12). Data analyses were blinded. The researchers performing the imaging acquisition and scoring were unaware of treatment condition given to sample groups analyzed.\nPrimary murine myoblasts were grown in myogenic cell culture medium containing DMEM/F10 (50:50), 15% FBS, 2.5 ng ml^−1 fibroblast growth factor-2 and 1% penicillin-streptomycin. […] For differentiation experiments, confluent myoblasts were grown in medium containing 5% horse serum, DMEM."}, "pFOXO": {"system": "pFOXO", "test": "Immunoblots of muscle lysates from aged vehicle and SW treated mice", "assay_type": "in vivo, mouse", "settings": "aged muscles, SW vs vehicle", "procedure": "Total lysates were prepared using lysis buffer (50 mM Tris-HCl pH 7.5, 150 mM NaCl, 4 mM CaCl, 1.5% Triton X-100, protease inhibitors and micrococcal nuclease). For tissue extracts, lysates were homogenized a FastPrep 24 homogenizer (MP Biomedicals) for 40 seconds at a speed of 6 m/s. We used the following antibodies: 15-PGDH (Santa Cruz Biotechnology, cat # sc-271418); phospho-AKT (Ser 473) (Cell Signaling cat #4060), AKT (Cell signaling cat #2920); phospho-FoxO1 (Thr24)/FoxO3a (Thr32) Antibody (Cell Signaling cat #9464T); Foxo3a (Cell Signaling cat #2497); phospho-CREB (Ser133) (Cell Signaling cat #9198S); phospho-S6 ribosomal protein (Ser235/236) (Cell Signaling cat#4858); SMC1 (Bethyl Laboratories cat# A300-055A-T). We used HRP conjugated secondary antibodies and developed by incubating the membranes with ECL Western Blotting Substrate (Nacalai USA) and imaging using the ChemiDoc Imaging System (BioRad)."}, "[1]": {"system": "15-PGDH overexpressing young muscles", "assay_type": "in vivo, mouse", "method": "Middle aged (18-20 mo.) and aged (>24 mo.) mice C57BL/6 were obtained the US National Institute on Aging (NIA) for aged muscle studies, and young (2-4 mo.) wild-type C57BL/6 mice from Jackson Laboratory. […] Time and distance to exhaustion was performed as previously described (4) for SW-treated mice and their controls.\nOverexpression of Hpgd (15-PGDH) was achieved by integrating AAV9 under CMV promoter and with eGFP under IRES (AA9-CMV-m-HPGD-IRES-eGFP) (Vector Biolabs). The control virus was AAV9-tMCK-eGFP-WPRE.\nThe peak isometric torque (N·mm) of the ankle plantarflexors was assessed as previously described (21, 22). Briefly, the foot of anesthetized mice was placed on a footplate attached to a servomotor (model 300C-LR; Aurora Scientific). Two Pt-Ir electrode needles (Aurora Scientific) were inserted percutaneously and subcutaneously over the tibial nerve, just posterior/posterior-medial to the knee. The ankle joint was secured at a 90° angle. The peak isometric torque was achieved by varying the current delivered to the tibial nerve at a frequency of 200 Hz and a 0.1—ms square wave pulse. We performed three tetanic measurements on each muscle, with 1 min recovery between each measurement. Data were collected with the Aurora Scientific Dynamic Muscle Data Acquisition and Analysis Software."}, "mdx4cv/mTRKO(G2) mice": {"system": "mdx4cv/mTRKO(G2) mice", "test": "Plantar flexion tetanic force in Duchenne muscular dystrophy mouse model", "assay_type": "in vivo", "settings": "8 month old mice, 4 weeks of treatment", "procedure": "For ABT-263 treatments, 20 month old C57/B16 mice were treated with vehicle (ethanol:polyethylene glycol 400:Phosal 50 PG) or ABT-263 (in ethanol:polyethylene glycol 400:Phosal 50 PG) by oral gavage for 2 cycles of 1 week with a 2 week rest period between cycles as described previously (1). For the Duchenne muscular dystrophy (DMD) mouse model, we used 8-10 month old mdx4cv/mTRKO(G2) generated as previously described (2).\nTime and distance to exhaustion was performed as previously described (4) for SW-treated mice and their controls (FIG. 3A).\nThe peak isometric torque (N·mm) of the ankle plantarflexors was assessed as previously described (8,9). Briefly, the foot of anesthetized mice was placed on a footplate attached to a servomotor (model 300C-LR; Aurora Scientific). Two Pt-Ir electrode needles (Aurora Scientific) […] subcutaneously over the tibial nerve, just posterior/posterior-medial to the knee. The ankle joint was secured at a 90° angle. The peak isometric torque was achieved by varying the current delivered to the tibial nerve at a frequency of 200 Hz and a 0.1-ms square wave pulse. We performed three tetanic measurements on each muscle, with 1 min recovery between each measurement. Data were collected with the Aurora Scientific Dynamic Muscle Data Acquisition and Analysis Software."}, "[2]": {"settings": "15-PGDH overexpressing young muscles, daily i.p."}},
  "note": "“Also recorded” adds a separate entry of the source.",
  "data": [
    {"smiles": "CCCC[S+]([O-])c1sc2nc(-c3cccs3)cc(-c3ccccc3)c2c1N", "note": "(stereo not drawn) [SW033291, 2-(butylsulfinyl)-4-phenyl-6-(thiophen-2-yl)thieno[2,3-b]pyridin-3-amine]", "values": [
      {"measurement": "myotube diameter", "setting": "myotubes", "result": "no increase; also recorded: no effect"},
      {"measurement": "pFOXO", "setting": "pFOXO", "result": "increased"},
      {"measurement": "mass of TA muscle", "setting": "[1]; [2]", "result": "increased"},
      {"measurement": "strength (plantar flexion tetanic force)", "setting": "[1]; [2]", "result": "increased"},
      {"measurement": "muscle atrophy induced by overexpression of 15-PGDH", "setting": "[1]; young mice", "result": "rescued"},
      {"measurement": "increase in muscle strength compared to vehicle treated controls", "setting": "mdx4cv/mTRKO(G2) mice", "result": 22, "unit": "%"}
    ]}
  ]
}
